Results published in paper PMC9926234, “Iterative computational design and crystallographic screening identifies potent inhibitors targeting the Nsp3 macrodomain of SARS-CoV-2” (Proceedings of the National Academy of Sciences of the …, 2023).
Several values for one entry are separate records, joined by “and”; a condition that tells them apart may be missing. Equal values may be shown once. Read-outs that look alike come from different tables or passages of the source.

Experiments:
SARS-CoV-2 NSP3 Mac1 [1] = target: T1, SARS-CoV-2 NSP3 Mac1 (Severe acute respiratory syndrome coronavirus 2, UniProt P0DTD1); assay: biochemical; design: HTRF ADPr-peptide displacement assay with Mac1, dose-response IC50; settings: read-out: IC50 [µM] / 0.5, 1.2, 1.4
SARS-CoV-2 NSP3 Mac1 [2] = target: T1, SARS-CoV-2 NSP3 Mac1; design: contains a conserved macrodomain enzyme (Mac1); Differential scanning fluorimetry of Mac1, maximum thermal upshift; settings: maximum shift over tested concentrations; binder
MacroD2 = target: T2, MacroD2 (Homo sapiens, UniProt A1Z1Q3); assay: adapted HTRF-based peptide displacement assay (off-target); type: binding; settings: versus MacroD2, in words
T2 construct: MacroD2_HTRF; HTRF assay; pET22b(+); His6, TEV, Avi; made in house
T2 sequence (A1Z1Q3 with tags, fused parts or gaps): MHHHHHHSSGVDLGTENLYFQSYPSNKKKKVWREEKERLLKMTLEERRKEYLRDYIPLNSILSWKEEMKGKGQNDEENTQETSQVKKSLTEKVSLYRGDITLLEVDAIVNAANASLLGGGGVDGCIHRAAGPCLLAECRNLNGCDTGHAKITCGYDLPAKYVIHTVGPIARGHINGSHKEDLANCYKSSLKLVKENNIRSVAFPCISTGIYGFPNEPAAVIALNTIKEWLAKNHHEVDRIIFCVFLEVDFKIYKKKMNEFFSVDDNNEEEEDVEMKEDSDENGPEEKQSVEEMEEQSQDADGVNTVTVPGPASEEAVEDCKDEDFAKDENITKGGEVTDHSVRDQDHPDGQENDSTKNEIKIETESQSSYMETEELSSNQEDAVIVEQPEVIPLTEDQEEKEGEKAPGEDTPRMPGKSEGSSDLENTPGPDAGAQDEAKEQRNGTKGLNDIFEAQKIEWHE

[3] = system: P-glycoprotein (human MDR1); assay: in vitro; settings: dog, MDCK-MDR1, pH 7.4
SARS-CoV-2 NSP3 Mac1 [4] = assay: Overall hit call (binding in crystallographic soaking or the HTRF-based binding assay)
Description: Supplement pnas.2212931120.sd01.xlsx, sheet "Compound Summary" | column: HIT*

TARG1 = target: T3, TARG1 (Homo sapiens, UniProt Q9Y530); assay: adapted HTRF-based peptide displacement assay (off-target); type: binding; settings: versus TARG1, in words
T3 construct: Targ1_HTRF; HTRF assay; pET22b(+); His6, TEV; 1-153; made in house
T3 sequence (Q9Y530 with tags, fused parts or gaps): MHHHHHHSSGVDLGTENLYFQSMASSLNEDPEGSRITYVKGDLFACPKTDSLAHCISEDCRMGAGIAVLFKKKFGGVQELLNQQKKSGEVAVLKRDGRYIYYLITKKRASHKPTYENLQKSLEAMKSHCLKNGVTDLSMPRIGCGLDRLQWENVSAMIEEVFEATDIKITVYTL

SARS-CoV-2 NSP3 Mac1 [5] = target: T1, SARS-CoV-2 NSP3 Mac1; type: binding
SARS-CoV-2 NSP3 Mac1 [6] = target: T1, SARS-CoV-2 NSP3 Mac1; assay: biochemical; type: binding; settings: for IC50: read-out: IC50; for Ki: read-out: Ki***
SARS-CoV-2 NSP3 Mac1 [7] = target: T1, SARS-CoV-2 NSP3 Mac1; design: contains a conserved macrodomain enzyme (Mac1); differential scanning fluorimetry, maximum thermal upshift; settings: binder
[8] = system: P-glycoprotein (human MDR1); assay: MDR1-MDCK II cell permeability; settings: dog, MDCK-MDR1, pH 7.4
SARS-CoV-2 NSP3 Mac1 [9] = target: T1, SARS-CoV-2 NSP3 Mac1; type: binding; design: contains a conserved macrodomain enzyme (Mac1)
Outline: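 Differential scanning fluorimetry using 5 µM Fluorescent Yellow dye in place of SYPRO Orange. Compounds run in triplicate at seven two-fold dilutions from 1,000 or 100 μM, with ΔTma taken against a DMSO control in the same plate region. Dose-response significance assessed by Spearman's coefficient between concentration and ΔTma.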

[10] = PanDDA event map background density correction, crystal soak, compound concentration 100 mM
[11] = PanDDA event map, 1 minus background density correction, crystal soaking of Mac1
[12] = PanDDA event map, crystal soak, Compound_concentration 100 mM, Echo_dispense_volume 40 nl
[13] = crystal soak, Compound_concentration 100 mM, Echo_dispense_volume 40 nl, PanDDA run (background map) dmso_34, nohits_35 or nohits_62
[14] = ligand modeled in the crystal structure, crystal soak, compound concentration 100 mM

O=C(NC1c2cccc(O)c2CC1C(=O)O)c1ccc(NCC2CC2)nc1 (stereo not shown) [Z8539_0009, 8539_0009]
IC50 (SARS-CoV-2 NSP3 Mac1 [1]): 17.1 µM
DSF max dTma (SARS-CoV-2 NSP3 Mac1 [2]): 2.03 °C

O=C(NC1c2cccc(O)c2CC1C(=O)O)c1ccc2[nH]cnc2c1 (stereo not shown) [Z8539_2001]
selectivity for viral Mac1 over human macrodomain (MacroD2): selective for viral Mac1
Papp A→B [3]: 1.1 ± 0.1 ×10⁻⁶ cm/s
Papp B→A [3]: 0.5 ×10⁻⁶ cm/s
HIT* (SARS-CoV-2 NSP3 Mac1 [4]): Y
selectivity for viral Mac1 over human macrodomain (TARG1): selective for viral Mac1
1-BDC (SARS-CoV-2 NSP3 Mac1 [5]; [10]): 0.23 and 0.42
1-BDC (PanDDA) (SARS-CoV-2 NSP3 Mac1 [5]; [11]): 0.23
1-BDC (SARS-CoV-2 NSP3 Mac1 [5]; [12]): 0.21
PanDDA hit? (SARS-CoV-2 NSP3 Mac1 [5]; [13]): TRUE
Modeled? (SARS-CoV-2 NSP3 Mac1 [5]; [14]): TRUE
Refined occupancy (SARS-CoV-2 NSP3 Mac1 [5]; ligand occupancy after refinement (phenix.refine), crystal soaking of Mac1): 46
binding to Mac1 in the HTRF assay, result in words (SARS-CoV-2 NSP3 Mac1 [6]): did not affect the binding affinity
IC50 (SARS-CoV-2 NSP3 Mac1 [6]; HTRF ADPr-conjugated peptide displacement): 5.4 µM
Ki (SARS-CoV-2 NSP3 Mac1 [6]): 4.7 µM

CC(CSc1nnc2[nH]cnn12)c1ccccc1 (stereo not shown) [Z3280, ZINC000920153280]
DSF max dTma (SARS-CoV-2 NSP3 Mac1 [7]): 0 degC

Nc1ncnc2c1ncn2Cc1cc(-c2ccco2)on1 [Z4827, ZINC000681764827]
DSF max dTma (SARS-CoV-2 NSP3 Mac1 [7]): 0.63 degC

Nc1ncnc2c1ncn2Cc1ccc(Cl)cn1 [Z0078, ZINC000559260078]
DSF max dTma (SARS-CoV-2 NSP3 Mac1 [7]): 0.98 degC

Nc1ncnc(N2CCC(Oc3ccncc3)C2)c1Cl (stereo not shown) [Z9710, ZINC000302059710]
DSF max dTma (SARS-CoV-2 NSP3 Mac1 [7]): 0 degC

O=C(NC1c2cccc(O)c2CC1C(=O)O)c1cnc2c(c1)CCCN2 (stereo not shown) [Z8539_0006, 8539_0006]
IC50 (SARS-CoV-2 NSP3 Mac1 [1]): 168 µM
DSF max dTma (SARS-CoV-2 NSP3 Mac1 [7]): 0 degC

CC(C(=O)O)c1cccc(C(=O)c2ccccc2)c1 (stereo not shown) [Ketoprofen]
Papp A→B at 90 min, 10 µM [8]: 17.6 ± 2.5 ×10⁻⁶ cm/s
Papp B→A at 90 min, 10 µM [8]: 16.1 ± 0.5 ×10⁻⁶ cm/s

O=C(NC1c2cccc(O)c2CC1C(=O)O)c1ccc2[nH]c(CO)nc2c1 (stereo not shown) [Z8539_0002]
Spearman est (compound concentration vs apparent Tm) (SARS-CoV-2 NSP3 Mac1 [9]; DSF dose responsiveness, 1 µM nsp3 mac1, adj p given): 0.74
DSF max dTma (SARS-CoV-2 NSP3 Mac1 [9]; maximal thermal upshift): 5.39 ˚C
selectivity for viral Mac1 over human macrodomain (MacroD2): selective for viral Mac1
Papp A→B [3]: 0.8 ± 0.2 ×10⁻⁶ cm/s
Papp B→A [3]: 1.4 ± 1 ×10⁻⁶ cm/s
selectivity for viral Mac1 over human macrodomain (TARG1): selective for viral Mac1
1-BDC (SARS-CoV-2 NSP3 Mac1 [5]; PanDDA 1-BDC value of the event, crystal soak, compound concentration 100 mM, per dataset): 0.26
1-BDC (SARS-CoV-2 NSP3 Mac1 [5]; [10]): 0.19
1-BDC (SARS-CoV-2 NSP3 Mac1 [5]; [11]): 0.29
1-BDC (PanDDA) (SARS-CoV-2 NSP3 Mac1 [5]; [11]): 0.19
1-BDC (SARS-CoV-2 NSP3 Mac1 [5]; [12]): 0.29
PanDDA hit? (SARS-CoV-2 NSP3 Mac1 [5]; [13]): TRUE
PanDDA hit? (SARS-CoV-2 NSP3 Mac1 [5]; crystal soak, compound concentration 100 mM, per dataset): TRUE
Modeled? (SARS-CoV-2 NSP3 Mac1 [5]; ligand modeled from this dataset, compound concentration 100 mM, Echo dispense volume 40 or 80 nl): TRUE
Modeled? (SARS-CoV-2 NSP3 Mac1 [5]; [14]): TRUE
HIT* (SARS-CoV-2 NSP3 Mac1 [5]; true hit = binding in crystallographic soaking or the HTRF-based binding assay): Y
IC50 (SARS-CoV-2 NSP3 Mac1 [6]; HTRF ADPr-peptide displacement from SARS-CoV-2 Mac1): 1.3 to 6.7 µM
IC50 (SARS-CoV-2 NSP3 Mac1 [6]; HTRF): 1.3 µM and 6.7 µM
Ki (SARS-CoV-2 NSP3 Mac1 [6]; Ki estimation from HTRF-derived IC50, Cheng-Prusoff, peptide 400nM, Kd 2.68µM): 1.1 µM and 5.8 µM
